We go through 3 molecules from US20070178544A1, “Anti fk778antibodies and high sensitive immunoassay methods” (priority 2004, published 2007).

The test is described as follows: Selection of an immunogen: titer of antibody in sera of immunized mice. The format is in vivo. The note with it: immunogen conjugated with bovine thyroglobulin, with FCA, Balb/c mice; four (FR267471, FR266831) or seven (FR270531) immunizations. The method, then:
To obtain the selective antibody against FK778, two kinds of immunogens which were conjugated (FR267471 and FR266831) with bovine thyroglobulin (Sigma-Aldrich Corp.) mixed with Freund's complete adjuvant (FCA) (Difco) were immunized in hyperimmune Balb/c mice. After four times immunizations, the titer of antibody against the FR267471-BSA or the FR266831-BSA in sera was measured by enzyme-linked immunosorbent assay. […] To obtain immunogens having higher titer than the two immunogens, another type of immunogen FR270531 was synthesized. […] Accordingly, the present inventors have used FR270531 as an immunogen to produce antibodies directed to FK778, and FR267471 and FR266831 as positive and negative control to select the FK778 antibody specifically binding to the FK778 substance.
For the molecule `N#C/C(C(=O)Nc1ccc(C(F)(F)F)cc1)=C(/O)CCCC(=O)O` [FR266831, (5Z)-6-cyano-5-hydroxy-7-oxo-7-{[4-(trifluoromethyl)phenyl]amino}-5-heptenoic acid], the “titer of antibody in sera” value is recorded as “not sufficient”.
In the case of `C#CCC/C(O)=C(\C#N)C(=O)Nc1ccc(OCCCCCC(=O)Oc2c(F)c(F)c(F)c(F)c2F)cc1` [FR270531, pentafluorophenyl 6-(4-{[(2Z)-2-cyano-3-hydroxy-2-hepten-6-ynoyl]amino}phenoxy)hexanoate], the “titer of antibody in sera” value was “higher than those of FR267471 and FR266831”.
The entry for `C#CCC/C(O)=C(\C#N)C(=O)Nc1ccc(OCCCCCC(=O)O)cc1` [FR267471, 6-(4-{[(2Z)-2-cyano-3-hydroxy-2-hepten-6-ynoyl]amino}phenoxy)hexanoic acid] is “not sufficient”.
